This passage reports IC50 results from patent US9296757B2, “Substituted benzothienopyrimidines” (BAYER PHARMA AKTIENGESELLSCHAFT, priority 2012, dated 2016).

The structures appear in SMILES notation.

Chain of human full-length MKNK1 (Q9BUB5 other isoform, or with tags, fused parts or gaps T344D): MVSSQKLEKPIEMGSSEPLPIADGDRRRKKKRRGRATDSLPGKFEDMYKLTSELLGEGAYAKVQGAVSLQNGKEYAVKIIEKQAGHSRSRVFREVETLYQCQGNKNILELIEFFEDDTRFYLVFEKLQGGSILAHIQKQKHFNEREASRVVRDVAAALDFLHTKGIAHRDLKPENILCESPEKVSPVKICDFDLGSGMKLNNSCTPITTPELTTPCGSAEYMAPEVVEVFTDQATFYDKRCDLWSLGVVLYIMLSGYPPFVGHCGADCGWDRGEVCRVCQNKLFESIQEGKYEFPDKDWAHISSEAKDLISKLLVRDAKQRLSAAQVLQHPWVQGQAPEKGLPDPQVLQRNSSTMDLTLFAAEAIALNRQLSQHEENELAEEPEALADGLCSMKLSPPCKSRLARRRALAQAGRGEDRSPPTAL

The target in this assay is human full-length MKNK1 (Homo sapiens (Human), UniProt Q9BUB5, T344D). As to the kind of experiment: MKNK1 kinase high ATP assay (TR-FRET). Type of assay: biochemical. The conditions noted are these: high ATP (2 mM final), 15 min preincubation with enzyme. The protocol:
MKNK1-inhibitory activity at high ATP of compounds of the present invention after their preincubation with MKNK1 was quantified employing the TR-FRET-based MKNK1 high ATP assay as described in the following paragraphs.
A recombinant fusion protein of Glutathione-S-Transferase (GST, N-terminally) and human full-length MKNK1 (amino acids 1-424 and T344D of accession number BAA 19885.1), expressed in insect cells using baculovirus expression system and purified via glutathione sepharose affinity chromatography, was purchased from Carna Biosciences (product no 02-145) and used as enzyme. As substrate for the kinase reaction the biotinylated peptide biotin-Ahx-IKKRKLTRRKSLKG (C-terminus in amide form) was used, which can be purchased e.g. from the company Biosyntan (Berlin-Buch, Germany).
For the assay 50 nL of a 100 fold concentrated solution of the test compound in DMSO was pipetted into a black low volume 384 well microtiter plate (Greiner Bio-One, Frickenhausen, Germany), 2 μL of a solution of MKNK1 in aqueous assay buffer [50 mM HEPES pH 7.5, 5 mM MgCl2, 1.0 mM dithiothreitol, 0.005% (v/v) Nonidet-P40 (Sigma)] was added and the mixture was incubated for 15 min at 22° C. to allow pre-binding of the test compounds to the enzyme before the start of the kinase reaction. Then the kinase reaction was started by the addition of 3 μL of a solution of adenosine-tri-phosphate (ATP, 3.3 mM=>final conc. in the 5 μL assay volume is 2 mM) and substrate (0.1 μM=>final conc. in the 5 μL assay volume is 0.06 μM) in assay buffer and the resulting mixture was incubated for a reaction time of 30 min at 22° C. The concentration of MKNK1 was adjusted depending of the activity of the enzyme lot and was chosen appropriate to have the assay in the linear range, typical concentrations were in the range of 0.003 μg/mL. The reaction was stopped by the addition of 5 μL of a solution of TR-FRET detection reagents (5 nM streptavidine-XL665 [Cisbio Bioassays, Codolet, France] and 1 nM anti-ribosomal protein S6 (pSer236)-antibody from Invitrogen [#44921G] and 1 nM LANCE EU-W1024 labeled ProteinG [Perkin-Elmer, product no. AD0071]) in an aqueous EDTA-solution (100 mM EDTA, 0.1% (w/v) bovine serum albumin in 50 mM HEPES pH 7.5).
The resulting mixture was incubated for 1 h at 22° C. to allow the formation of complex between the phosphorylated biotinylated peptide and the detection reagents. Subsequently the amount of phosphorylated substrate was evaluated by measurement of the resonance energy transfer from the Eu-chelate to the streptavidine-XL. Therefore, the fluorescence emissions at 620 nm and 665 nm after excitation at 350 nm were measured in a TR-FRET reader, e.g. a Rubystar (BMG Labtechnologies, Offenburg, Germany) or a Viewlux (Perkin-Elmer). The ratio of the emissions at 665 nm and at […] was taken as the measure for the amount of phosphorylated substrate. The data were normalised (enzyme reaction without inhibitor=0% inhibition, all other assay components but no enzyme=100% inhibition).
`O=C(NCC1CCc2c(sc3ncnc(Nc4ccc5[nH]c(=O)sc5c4)c23)C1)[C@@H](O)Cc1ccccc1` (mixture of isomers) [Example 23, (2R)-2-Hydroxy-N-({(7RS)-4-[(2-oxo-2,3-dihydro-1,3-benzothiazol-6-yl)amino]-5,6,7,8-tetrahydro[1]benzothieno[2,3-d]pyrimidin-7-yl}methyl)-3-phenylpropanamide] came in with an IC50 of 43 nM.
`CC(C)(C)OC(=O)N[C@@H](CCO)C(=O)NCC1CCc2c(sc3ncnc(Nc4ccc5[nH]c(=O)sc5c4)c23)C1` (mixture of isomers) [Example 27, tert-Butyl {(2R)-4-hydroxy-1-oxo-1-[({(7RS)-4-[(2-oxo-2,3-dihydro-1,3-benzothiazol-6-yl)amino]-5,6,7,8-tetrahydro[1]benzothieno[2,3-d]pyrimidin-7-yl}methyl)amino]butan-2-yl}carbamate] had an IC50 of 100 nM.
Compound `N[C@@H](CCO)C(=O)NCC1CCc2c(sc3ncnc(Nc4ccc5[nH]c(=O)sc5c4)c23)C1` (mixture of isomers) [Example 32, N-({4-[(2-Oxo-2,3-dihydro-1,3-benzothiazol-6-yl)amino]-5,6,7,8-tetrahydro[1]benzothieno[2,3-d]pyrimidin-7-(RS)-yl}methyl)-L-homoserinamide] showed a 50% inhibitory concentration (IC50) of 92 nM.
The same measure for `CCOC(=O)C1CCc2c(sc3ncnc(Nc4ccc5[nH]c(=O)sc5c4)c23)C1` (racemic) [Example 1, (RS)-Ethyl 4-[(2-oxo-2,3-dihydro-1,3-benzothiazol-6-yl)amino]-5,6,7,8-tetrahydro[1]benzothieno[2,3-d]pyrimidine-7-carboxylate]: 47 nM.
The compound `O=C(O)C1CCc2c(sc3ncnc(Nc4ccc5[nH]c(=O)sc5c4)c23)C1` (racemic) [Example 2, (RS)-4-[(2-Oxo-2,3-dihydro-1,3-benzothiazol-6-yl)amino]-5,6,7,8-tetrahydro[1]benzothieno[2,3-d]pyrimidine-7-carboxylic acid] had an IC50 of 108 nM.
The compound `CCNC(=O)C1CCc2c(sc3ncnc(Nc4ccc5[nH]c(=O)sc5c4)c23)C1` (racemic) [Example 3, (RS)—N-Ethyl-4-[(2-oxo-2,3-dihydro-1,3-benzothiazol-6-yl)amino]-5,6,7,8-tetrahydro[1]benzothieno[2,3-d]pyrimidine-7-carboxamide] came in with a 50% inhibitory concentration (IC50) of 39 nM.
For `O=C(NC1CC1)C1CCc2c(sc3ncnc(Nc4ccc5[nH]c(=O)sc5c4)c23)C1` (racemic) [Example 4, (RS)—N-Cyclopropyl-4-[(2-oxo-2,3-dihydro-1,3-benzothiazol-6-yl)amino]-5,6,7,8-tetrahydro[1]benzothieno[2,3-d]pyrimidine-7-carboxamide], the IC50 worked out at 57 nM.
In the case of `CC(C)NC(=O)C1CCc2c(sc3ncnc(Nc4ccc5[nH]c(=O)sc5c4)c23)C1` (racemic) [Example 5, (RS)—N-Isopropyl-4-[(2-oxo-2,3-dihydro-1,3-benzothiazol-6-yl)amino]-5,6,7,8-tetrahydro[1]benzothieno[2,3-d]pyrimidine-7-carboxamide], half-maximal inhibition (IC50) was put at 36 nM.
As to `CC(C)CNC(=O)C1CCc2c(sc3ncnc(Nc4ccc5[nH]c(=O)sc5c4)c23)C1` (racemic) [Example 6, (RS)—N-Isobutyl-4-[(2-oxo-2,3-dihydro-1,3-benzothiazol-6-yl)amino]-5,6,7,8-tetrahydro[1]benzothieno[2,3-d]pyrimidine-7-carboxamide], half-maximal inhibition (IC50) required 40 nM.
As for `O=C(NCCC(F)(F)F)C1CCc2c(sc3ncnc(Nc4ccc5[nH]c(=O)sc5c4)c23)C1` (racemic) [Example 7, (RS)-4-[(2-Oxo-2,3-dihydro-1,3-benzothiazol-6-yl)amino]-N-(3,3,3-trifluoropropyl)-5,6,7,8-tetrahydro[1]benzothieno[2,3-d]pyrimidine-7-carboxamide], the IC50 stood at 42 nM.
In turn, `O=C(Nc1ccccc1)C1CCc2c(sc3ncnc(Nc4ccc5[nH]c(=O)sc5c4)c23)C1` (racemic) [Example 8, (RS)-4-[(2-Oxo-2,3-dihydro-1,3-benzothiazol-6-yl)amino]-N-phenyl-5,6,7,8-tetrahydro[1]benzothieno[2,3-d]pyrimidine-7-carboxamide] came in with an IC50 of 33 nM.
The same measure for `O=C(NCc1ccccc1)C1CCc2c(sc3ncnc(Nc4ccc5[nH]c(=O)sc5c4)c23)C1` (racemic) [Example 9, (RS)—N-Benzyl-4-[(2-oxo-2,3-dihydro-1,3-benzothiazol-6-yl)amino]-5,6,7,8-tetrahydro[1]benzothieno[2,3-d]pyrimidine-7-carboxamide]: 9 nM; for `O=C(NCc1cccc(C(F)(F)F)c1)C1CCc2c(sc3ncnc(Nc4ccc5[nH]c(=O)sc5c4)c23)C1` (racemic) [Example 10, (RS)-4-[(2-Oxo-2,3-dihydro-1,3-benzothiazol-6-yl)amino]-N-[3-(trifluoromethyl)benzyl]-5,6,7,8-tetrahydro[1]benzothieno[2,3-d]pyrimidine-7-carboxamide]: 11 nM; for `CNC(=O)C1CCc2c(sc3ncnc(Nc4ccc5[nH]c(=O)sc5c4)c23)C1` (racemic) [Example 11, (RS)—N-Methyl-4-[(2-oxo-2,3-dihydro-1,3-benzothiazol-6-yl)amino]-5,6,7,8-tetrahydro[1]benzothieno[2,3-d]pyrimidine-7-carboxamide]: 91 nM.
The figure for `O=C(NCC1CC1)C1CCc2c(sc3ncnc(Nc4ccc5[nH]c(=O)sc5c4)c23)C1` (racemic) [Example 12, (RS)—N-(Cyclopropylmethyl)-4-[(2-oxo-2,3-dihydro-1,3-benzothiazol-6-yl)amino]-5,6,7,8-tetrahydro[1]benzothieno[2,3-d]pyrimidine-7-carboxamide] is 48 nM.
As for `CN(C)C(=O)C1CCc2c(sc3ncnc(Nc4ccc5[nH]c(=O)sc5c4)c23)C1` (racemic) [Example 13, (RS)—N,N-Dimethyl-4-[(2-oxo-2,3-dihydro-1,3-benzothiazol-6-yl)amino]-5,6,7,8-tetrahydro[1]benzothieno[2,3-d]pyrimidine-7-carboxamide], half-maximal inhibition (IC50) required 41 nM.
For `O=C(NCc1cccc(F)c1)C1CCc2c(sc3ncnc(Nc4ccc5[nH]c(=O)sc5c4)c23)C1` (racemic) [Example 14, (RS)—N-(3-Fluorobenzyl)-4-[(2-oxo-2,3-dihydro-1,3-benzothiazol-6-yl)amino]-5,6,7,8-tetrahydro[1]benzothieno[2,3-d]pyrimidine-7-carboxamide], the IC50 came out at 25 nM.
The same measure for `O=C(NCC(F)(F)F)C1CCc2c(sc3ncnc(Nc4ccc5[nH]c(=O)sc5c4)c23)C1` (racemic) [Example 15, (RS)-4-[(2-oxo-2,3-dihydro-1,3-benzothiazol-6-yl)amino]-N-(2,2,2-trifluoroethyl)-5,6,7,8-tetrahydro[1]benzothieno[2,3-d]pyrimidine-7-carboxamide]: 85 nM.
The same measure for `COCC1(OC)CCc2c(sc3ncnc(Nc4ccc5[nH]c(=O)sc5c4)c23)C1` (racemic) [Example 16, (RS)-6-{[7-Methoxy-7-(methoxymethyl)-5,6,7,8-tetrahydro[1]benzothieno[2,3-d]pyrimidin-4-yl]amino}-1,3-benzothiazol-2(3H)-one]: 304 nM; for `CC1CCc2c(sc3ncnc(Nc4ccc5[nH]c(=O)sc5c4)c23)C1` (racemic) [Example 17, (RS)-6-[(7-Methyl-5,6,7,8-tetrahydro[1]benzothieno[2,3-d]pyrimidin-4-yl)amino]-1,3-benzothiazol-2(3H)-one]: 128 nM.
`O=c1[nH]c2ccc(Nc3ncnc4sc5c(c34)CCC(CO)C5)cc2s1` (racemic) [Example 18, (RS)-6-{[7-(Hydroxymethyl)-5,6,7,8-tetrahydro[1]benzothieno[2,3-d]pyrimidin-4-yl]amino}-1,3-benzothiazol-2(3H)-one] showed a 50% inhibitory concentration (IC50) of 60 nM.
Consider `[N-]=[N+]=NCC1CCc2c(sc3ncnc(Nc4ccc5[nH]c(=O)sc5c4)c23)C1` (racemic) [Example 19, (RS)-6-{[7-(Azidomethyl)-5,6,7,8-tetrahydro[1]benzothieno[2,3-d]pyrimidin-4-yl]amino}-1,3-benzothiazol-2(3H)-one], for which the IC50 came out at 93 nM.
